# From patent US11053476B2, “Generation of cancer stem cells and use thereof” (EXOSTEM BIOTEC LTD., priority 2016, dated 2021)
# System: Sox2
# Test: Sox2 expression in generated CSCs, factor added to basic protocol
# Format: cell-based
# Conditions: PKC activation; FIG. 6B
# Description: (§1) In order to generate CSCs in vitro, both primary differentiated cancer cells (primary glioma cells) as well as cells from a cancer cell line (U87 cells) were obtained. Glioma cells and U87 cells were trypsinized, and washed three times with medium +10% FCS. The cells were then resuspended in medium that was brought to a pH of 6.0 and were placed on a rotator and incubated for 45-90 minutes. The cells were then incubated in medium supplemented with EGF and FGF. The cells were optionally kept in mild hypoxic conditions (2-3% oxygen) during this second incubation and were then plated on bacterial plates.
# (§2) Tumorspheres formed on these plates within one week and were removed from the cells that had attached to the dish. The tumorspheres were disaggregated and the cells were re-plated at limiting dilution to generate secondary spheroids. The secondary tumorspheres were then characterized for CSC specific markers, the ability to self-renew and the ability to generate tumors that recapitulate the parental tumors.
# (§3) Knowing that the basic protocol for generating CSCs (acid, EGF/FGF and two rounds of sphere generation) was successful; several modifications to the protocol were examined. […] Second, a wide range of factors were found, that when supplemented to the EGF and FGF containing media, increased the efficacy of the protocol, either by increasing the number of CSCs produced or by increasing their stemness.
Molecule,effect on Sox2 expression,effectiveness on Sox2 expression compared with PMA
PKC alpha: protein kinase C alpha; activators or overexpression,increase Sox2 expression,more effective that PMA
"CCCCCCCCCCCCCC(=O)O[C@@H]1[C@@H](C)[C@@]2(O)[C@@H](C=C(CO)C[C@]3(O)C(=O)C(C)=C[C@@H]23)[C@@H]2C(C)(C)[C@]12OC(C)=O [PMA, phorbol 12-myristate 13-acetate, reference compound]",increase Sox2 expression,–

# System: differentiated cancer cells
# Test: Efficacy and penetrance of dedifferentiation with transcription and secreted factors
# Format: cell-based
# Conditions: expression in the cells or in their media during second incubation or tumorsphere formation
# Description: as §1, §2
# Lastly, several transcription factors and secreted factors that are known to enhance stemness or cancer progression were introduced into the differentiated cells during the second incubation or during tumorsphere formation.
row,Molecule,effect on dedifferentiation brought about by the standard protocol
1,NANOG: transcription or secreted factor expressed in the cells or in their media,increase the efficacy and penetrance of the dedifferentiation
2,STAT3: transcription or secreted factor expressed in the cells or in their media,increase the efficacy and penetrance of the dedifferentiation
3,LIF: transcription or secreted factor expressed in the cells or in their media,increase the efficacy and penetrance of the dedifferentiation

# System: CSCs generated from differentiated cancer cells
# Test: Self-renewal of CSCs (secondary tumorspheres) generated from differentiated cancer cells, factor added to basic protocol
# Format: cell-based
# Conditions: added to second incubation; data not shown
# Description: as §1, §2, §3
row,Molecule,efficacy in enhancing dedifferentiation
1,CCCC(CCC)C(=O)O [Valporic acid],effective
2,"insulin: insulin, added to the second incubation",effective

# Same assay, conditions: small molecule added to second incubation; FIG. 6A
row,Molecule,effect on rate of self-renewal
1,Nc1nccc2c1ncn2[C@@H]1C=C(CO)[C@@H](O)[C@H]1O [3-deazaneplanocin A],increase the rate of self-renewal
2,O=C(O)CCCc1ccccc1 [4-phenylbutyrate],increase the rate of self-renewal
3,Nc1ncn([C@H]2C[C@H](O)[C@@H](CO)O2)c(=O)n1 [5-aza-2′-deoxycytidine],increase the rate of self-renewal
4,N[C@@H]1C[C@H]1c1ccccc1 (racemic) [tranylcypromine],increase the rate of self-renewal
5,Cc1c[nH]c(-c2cnc(NCCNc3ccc(C#N)cn3)nc2-c2ccc(Cl)cc2Cl)n1 [CHIR99021],increase the rate of self-renewal
6,C[C@@H](N)[C@H]1CC[C@H](C(=O)Nc2ccncc2)CC1 [Y-27632],increase the rate of self-renewal
7,"CCCCCCCCCCCCCC(=O)O[C@@H]1[C@@H](C)[C@@]2(O)[C@@H](C=C(CO)C[C@]3(O)C(=O)C(C)=C[C@@H]23)[C@@H]2C(C)(C)[C@]12OC(C)=O [PMA, phorbol 12-myristate 13-acetate, reference compound]",increase the rate of self-renewal
8,CCCCCCCCCCCCCC=CC(O)C(CO)NC(=O)CCCCC (stereo not shown) [Ceramide C6],increase the rate of self-renewal
